Reference: ChEMBL document CHEMBL6087463, “Discovery of Novel 4,5,6,7-Tetrahydro-7H-pyrazolo[3,4-c]pyridin-7-one Derivatives as Orally Efficacious ATX Allosteric Inhibitors for the Treatment of Pulmonary Fibrosis” (J Med Chem, 2025)

Experiments:
[1] = target: Voltage-gated inwardly rectifying potassium channel KCNH2 (Homo sapiens, UniProt Q12809); test: Inhibition of hERG expressed in CHO cells by automated patch-clamp assay; type: toxicity, cell-based
[2] = target: Autotaxin (Homo sapiens, UniProt Q13822); test: Inhibition of human ATX using LPC16:0 as substrate preincubated with compound for 20 mins followed by substrate addition and measured after 1 hr by fluorescence based microplate analysis

Chain of Voltage-gated inwardly rectifying potassium channel KCNH2 (Q12809 whole entry): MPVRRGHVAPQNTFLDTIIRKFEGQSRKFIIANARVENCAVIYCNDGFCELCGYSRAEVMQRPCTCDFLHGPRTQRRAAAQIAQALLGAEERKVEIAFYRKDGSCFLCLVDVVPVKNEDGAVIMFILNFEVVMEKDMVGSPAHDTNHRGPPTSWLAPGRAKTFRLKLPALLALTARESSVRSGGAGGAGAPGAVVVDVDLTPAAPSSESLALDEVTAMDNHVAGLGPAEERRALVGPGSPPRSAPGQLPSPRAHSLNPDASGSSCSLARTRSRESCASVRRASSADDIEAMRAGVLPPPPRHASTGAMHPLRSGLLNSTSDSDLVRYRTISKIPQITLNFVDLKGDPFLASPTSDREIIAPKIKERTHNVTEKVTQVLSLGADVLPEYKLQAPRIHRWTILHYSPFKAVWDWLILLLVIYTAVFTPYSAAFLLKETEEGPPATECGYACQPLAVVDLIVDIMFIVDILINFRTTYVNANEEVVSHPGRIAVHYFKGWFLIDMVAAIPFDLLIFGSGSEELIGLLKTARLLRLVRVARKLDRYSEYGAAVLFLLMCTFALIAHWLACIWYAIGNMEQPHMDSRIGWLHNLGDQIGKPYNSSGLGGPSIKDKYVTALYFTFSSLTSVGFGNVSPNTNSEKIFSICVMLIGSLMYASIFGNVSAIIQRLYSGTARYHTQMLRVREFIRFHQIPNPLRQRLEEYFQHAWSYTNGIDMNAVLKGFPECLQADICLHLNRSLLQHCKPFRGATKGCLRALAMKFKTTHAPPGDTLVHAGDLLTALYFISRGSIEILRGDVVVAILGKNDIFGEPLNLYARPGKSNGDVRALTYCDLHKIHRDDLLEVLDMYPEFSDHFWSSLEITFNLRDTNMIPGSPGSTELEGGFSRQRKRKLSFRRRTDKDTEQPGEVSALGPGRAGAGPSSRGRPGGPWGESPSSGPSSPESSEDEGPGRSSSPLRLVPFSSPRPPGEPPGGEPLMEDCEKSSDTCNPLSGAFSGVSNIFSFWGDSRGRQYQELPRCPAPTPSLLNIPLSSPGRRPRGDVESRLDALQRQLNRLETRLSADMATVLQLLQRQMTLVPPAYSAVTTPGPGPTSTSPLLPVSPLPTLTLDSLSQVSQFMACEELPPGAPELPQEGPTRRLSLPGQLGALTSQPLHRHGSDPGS

SMILES | IC50 [1] [µM] | IC50 [2] [µM]
COCn1cc(-n2nc(C(=O)Nc3ccccc3C(=O)O)c3c2C(=O)N(c2ccccc2)CC3)cn1 | > 30 | 
CC(C)n1cc(-n2nc(C(=O)NN3CCCC(C(=O)O)C3)c3c2C(=O)N(c2ccccc2)CC3)cn1 (configuration not stated) |  | 3.26
